Measured values taken from patent US20260256145A1, “IRON AGENT FOR GROWING ANIMALS AND PLANTS, METHOD FOR PRODUCING THE SAME, AND IRON SUPPLY PREPARATION FOR GROWING ANIMALS AND PLANTS” (Sobue Clay Co., Ltd., priority 2023, published 2026).

How the values were obtained:
[1] = system: plants; assay: Consideration of Use Examples 1 to 6: plant weight index versus no iron agent; format: in vivo; conditions: no irrigation with an iron agent = 100, based on Use Examples 1 to 6
Experimental: (§1) An aqueous solution of sodium ferrous citrate to be irrigated was prepared by adding 150 g of citric acid to 850 ml of tap water to produce citric acid water, then adding thereto 25 g of reduced iron powder, followed by stirring, and then adding to the resultant mixture 150 g of sodium hydrogen carbonate, followed by stirring and mixing.
The following consideration is made based on the results of Use Examples 1 to 6.
When the index in the case of no irrigation with an iron agent is 100, with respect to the plant's aboveground weight, it is 116 in the case of the irrigation with the aqueous solution of iron citrate and 209 in the case of the irrigation with the aqueous solution of sodium ferrous citrate, and with respect to the plant's root weight, it is 134 in the case of the irrigation with the aqueous solution of iron citrate and 464 in the case of the irrigation with the aqueous solution of sodium ferrous citrate.

[2] = Change of Fe2+ ion concentration of the aqueous solution in the production process; format: physicochemical; conditions: iron mixed with the citrate solution while stirring, FIGS. 1 to 4
Experimental: The aqueous solution of iron citrate is prepared by any one of the following methods: a method in which citric acid, solid iron and water are stirred and mixed together; a method in which solid iron is added to citric acid having been dissolved in water, followed by stirring and mixing; and a method in which solid iron and citric acid powder are added to a required amount of citric acid having been dissolved in water, followed by stirring and mixing while, if necessary, heating. To the thus obtained aqueous solution of iron citrate is mixed sodium hydrogen carbonate while, if necessary, heating, thereby producing an aqueous solution of sodium ferrous citrate. By the addition of sodium hydrogen carbonate, the aqueous solution of sodium ferrous citrate has been alkalized to have a pH value of from 5 to 8.
FIGS. 2 to 4 respectively show the change of the Fe^2+ ion concentration of aqueous iron agent solutions 1 to 3 for growth, each of which is produced by the above-mentioned method. […] Therefore, it is judged that the aqueous iron citrate solution is not suitable as an iron agent for growth.
In the cases of aqueous sodium ferrous citrate solutions 1 to 3 shown in FIGS. 2 to 4, the Fe^2+ ion concentration is confirmed to increase, differing from the case of the aqueous iron citrate solution shown in FIG. 1. […]

[3] = system: molokheiya; assay: Use Example 1: growth of molokheiya irrigated with iron agent; format: in vivo; conditions: irrigation once a week, after 30 days of cultivation, in comparison with the other plants (no iron agent, iron citrate)
Experimental: as §1
(§2) Plants not irrigated with an iron agent (left side of the figure), plants irrigated with an aqueous solution of iron citrate (center of the figure), and plants irrigated with an aqueous solution of sodium citrate (right side of the figure) as the iron supply preparation for growth of the present application were provided, and the plants were cultivated while performing irrigation on the plants at a rate of once a week, and the growth conditions after 30 days of cultivation are shown. Each of the aqueous solution of iron citrate and the aqueous solution of sodium ferrous citrate was diluted 10000 times so that the total iron content was 15000 ppm, and the Fe^2+ content was 3000 ppm for iron citrate and 12500 ppm for sodium ferrous citrate.

[4] = system: komatsuna (Japanese mustard spinach); assay: Use Example 2: growth of komatsuna irrigated with iron agent; format: in vivo; conditions: irrigation once a week, after 23 days of cultivation, in comparison with the other plants
Experimental: as §1
as §2, with “after 23” for “after 30”

[5] = system: okra; assay: Use Example 3: growth of okra irrigated with iron agent; format: in vivo; conditions: irrigation once a week, after 19 days of cultivation, in comparison with the other plants
Experimental: as §1
as §2, with “after 19” for “after 30”

[6] = system: red leaf lettuce; assay: Use Example 4: growth of red leaf lettuce irrigated with iron agent; format: in vivo; conditions: irrigation once a week, after 19 days of cultivation, in comparison with the other plants
Experimental: as §1
as §2, with “after 19” for “after 30”

[7] = system: parsley; assay: Use Example 5: growth of parsley irrigated with iron agent; format: in vivo; conditions: irrigation once a week, after 19 days of cultivation, in comparison with the other plants
Experimental: as §1
as §2, with “after 19” for “after 30”

[8] = system: Italian parsley; assay: Use Example 6: growth of Italian parsley irrigated with iron agent; format: in vivo; conditions: irrigation once a week, after 19 days of cultivation, in comparison with the other plants
Experimental: as §1
as §2, with “after 19” for “after 30”

Substance | index of the plant's aboveground weight [1] | index of the plant's root weight [1] | change of the Fe^2+ ion concentration of the aqueous solution [2] | rooting [3] | weight of the aboveground part [3] | rooting [4] | weight of the aboveground part [4] | rooting [5] | weight of the aboveground part [5] | rooting [6] | weight of the aboveground part [6] | rooting [7] | weight of the aboveground part [7] | rooting [8] | weight of the aboveground part [8]
iron citrate [reference compound] | 116 | 134 | not confirmed to increase |  |  |  |  |  |  |  |  |  |  |  | 
sodium ferrous citrate | 209 | 464 |  | improvement | increase | improvement | increase | improvement | increase | improvement | increase | improvement | increase | improvement | increase
